Results published in US5874432A, “Saccharin derivatives useful as proteolytic enzyme inhibitors and compositions and method of use thereof” (priority 1997, dated 1999).
Read-outs that look alike come from different tables or passages of the source.

Biological target: T1, human leukocyte elastase (Homo sapiens, UniProt P08246)
T1 sequence (P08246 30-267): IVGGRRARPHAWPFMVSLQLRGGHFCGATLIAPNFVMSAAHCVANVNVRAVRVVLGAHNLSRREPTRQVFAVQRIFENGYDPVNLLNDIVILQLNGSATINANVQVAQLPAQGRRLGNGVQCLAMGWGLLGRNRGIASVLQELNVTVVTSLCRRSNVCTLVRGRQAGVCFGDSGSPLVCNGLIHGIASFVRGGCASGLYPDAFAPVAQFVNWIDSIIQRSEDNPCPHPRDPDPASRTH
Test: elastase inhibition using human leukocyte elastase (kon and Ki*)
Assay type: biochemical
Settings: for Ki: Ki* = koff/kon, read-out: Elastase Ki *; for kon: read-out: Elastase 10^-3 × kon

[1] = rate of inactivation of enzyme, value is 10^-3 × kon

Method: Thus, instead of measuring a Ki, a Ki * is calculated which is defined as the ratio of the koff /kon, the rate of reactivation of the enzyme to the rate of inactivation of the enzyme. The values of koff and kon are measured and Ki * is then calculated.
The rate of inactivation, kon, of enzymatic activity was determined for the compounds tested by measuring the enzyme activity of an aliquot of the respective enzyme as a function of time after addition of the test compound. […] The rate of inactivation is then equal to [formula] where [I] is the concentration of the inhibiting compound.
The reactivation constant, koff, is similarly determined and the inhibition constant, Ki *, is then calculated as

With `O=C1c2ccccc2S(=O)(=O)N1CSc1nnc(SCCN2CCCCC2)s1` [Example 33C, 2-(5-[2-(1-piperidinyl)-ethylthio]-1,3,4-thiadiazol-2-ylthiomethyl)saccharin] the Ki was 350 nM and the kon [1] was 200 M⁻¹ s⁻¹.

Compound `O=C1c2ccccc2S(=O)(=O)N1CSc1nc2ccc([N+](=O)[O-])cc2s1` [Example 30BD] has a Ki of 8 nM and a kon [1] of 11700 M⁻¹ s⁻¹.

`O=C1c2ccccc2S(=O)(=O)N1CSc1nnc(SCCN2CCOCC2)s1` [Example 33, 2-(5-[2-(4-morpholinyl)ethylthio]-1,3,4-thiadiazol-2-ylthiomethyl)saccharin] showed a Ki of 12 nM and a kon of 3600 M⁻¹ s⁻¹.

For `O=C1c2ccccc2S(=O)(=O)N1CSc1nc2ccc([N+](=O)[O-])cc2o1` [Example 30BE], the Ki was 250 nM and the kon [1] was 7400 M⁻¹ s⁻¹.

In the case of `Cc1nnc(SCN2C(=O)c3ccccc3S2(=O)=O)s1` [Example 30AB], the Ki is reported as 23 nM and the kon [1] is reported as 2800 M⁻¹ s⁻¹.

Work on `O=C1c2ccccc2S(=O)(=O)N1CSc1nnnn1CCO` [Example 30AQ] yielded a Ki of 260 nM and a kon [1] of 900 M⁻¹ s⁻¹.

For `CCc1cccc2c1C(=O)N(CSc1nnnn1CCN1CCOCC1)S2(=O)=O` [Example 30J], the Ki was 10 nM and the kon [1] was 14000 M⁻¹ s⁻¹.

Work on `O=C1c2ccccc2S(=O)(=O)N1Cn1nnn(-c2cccnc2)c1=S` [Example 30R] yielded a Ki of 36 nM and a kon [1] of 2300 M⁻¹ s⁻¹.

In the case of `Cn1nnc(=S)n1CN1C(=O)c2ccccc2S1(=O)=O` [Example 30W], the Ki is reported as 80 nM and the “Elastase 10^-3 × kon” value [1] is reported as 1.5 M^-1 sec^-1.

Work on `COc1ccc2c(c1OC)C(=O)N(CCl)S2(=O)=O` [Example 22F] yielded a Ki of 6.5 nM and a kon [1] of 20000 M⁻¹ s⁻¹.

Work on `CCOc1cccc2c1C(=O)N(CCl)S2(=O)=O` [Example 22H] yielded a Ki of 1.2 nM and a kon [1] of 25000 M⁻¹ s⁻¹.

Compound `O=C1c2ccccc2S(=O)(=O)N1C(Sc1nnnn1-c1ccccc1)c1ccccc1` (stereo not drawn) [Example 19, 2-(1-phenyl-1H-tetrazol-5-ylthiophenylmethyl)saccharin] has a Ki of 8500 nM.

With `CSc1nn(CN2C(=O)c3ccccc3S2(=O)=O)c(=S)s1` [Example 30AD] the Ki was 11.6 nM and the kon [1] was 7000 M⁻¹ s⁻¹.

Work on `O=C1c2c(-c3ccccc3)cccc2S(=O)(=O)N1CSc1nnnn1-c1ccccc1` [Example 30BC] yielded a kon [1] of 5800 M⁻¹ s⁻¹.

`CN(C)C(=O)Cn1nnnc1SCN1C(=O)c2ccccc2S1(=O)=O` [Example 30AS] showed a Ki of 40 nM and a kon [1] of 1700 M⁻¹ s⁻¹.

For `CCOc1cccc2c1C(=O)N(CSc1nnnn1-c1ccccc1)S2(=O)=O` [Example 30AT], the kon [1] was 45300 M⁻¹ s⁻¹.

`O=C1c2ccccc2S(=O)(=O)N1CSc1nnc2ccccn12` [Example 30N] was tested, and the Ki was 220 nM and the kon [1] was 250 M⁻¹ s⁻¹.

`O=C(O)Cn1nnnc1SCN1C(=O)c2ccccc2S1(=O)=O` [Example 34, 2-[1-(2-carboxymethyl)-1H-tetrazol-5-ylthiomethyl]saccharin] gave a Ki of 256 nM and a kon [1] of 400 M⁻¹ s⁻¹.

Compound `Cc1ccc(C)c2c1C(=O)N(CCl)S2(=O)=O` [Example 29, 2-chloromethyl-4,7-dimethylsaccharin] has a Ki of 120 nM and a kon [1] of 1100 M⁻¹ s⁻¹.

In the case of `CC(C)c1cccc2c1C(=O)N(CCl)S2(=O)=O` [Example 22E, 2-chloromethyl-4-isopropylsaccharin], the Ki is reported as 91 nM and the kon [1] is reported as 4700 M⁻¹ s⁻¹.

Compound `CN(C)CCSc1nnc(SCN2C(=O)c3ccccc3S2(=O)=O)s1` [Example 33B, 2-(5-[2-(N,N-dimethylamino)-ethylthio]-1,3,4-thiadiazol-2-ylthiomethyl)saccharin] has a Ki of 18 nM and a kon [1] of 4000 M⁻¹ s⁻¹.

`O=C(O)CCC(=O)Nc1cccc(-n2nnnc2SCN2C(=O)c3ccccc3S2(=O)=O)c1` [Example 35, 2-[1-(3-succinoylaminophenyl)-1H-tetrazol-5-ylthiomethyl]saccharin] was tested, and the Ki was 22 nM and the kon [1] was 3600 M⁻¹ s⁻¹.

`O=C1c2cc([N+](=O)[O-])ccc2S(=O)(=O)N1CSc1nnnn1-c1ccccc1` [Example 11, 5-nitro-2-(1-phenyl-1H-tetrazol-5-ylthiomethyl)saccharin] gave a kon of 4600 M⁻¹ s⁻¹.

In the case of `Cn1nnc(SCN2C(=O)c3ccccc3S2(=O)=O)n1` [Example 30X], the Ki is reported as 143 nM and the kon [1] is reported as 550 M⁻¹ s⁻¹.

With `O=C1C=Cc2ccc(OCN3C(=O)c4ccccc4S3(=O)=O)c3cccc1c23` [Example 30G] the Ki was 7.7 nM and the kon [1] was 9300 M⁻¹ s⁻¹.

For `CC(C)c1cccc2c1C(=O)N(CSc1nnnn1C)S2(=O)=O` [Example 30AN], the Ki was 30 nM and the kon [1] was 19000 M⁻¹ s⁻¹.

For `Cn1cnnc1SCN1C(=O)c2ccccc2S1(=O)=O` [Example 30AC], the kon [1] was 190 M⁻¹ s⁻¹.

Work on `O=C1c2c(Br)cccc2S(=O)(=O)N1CCl` [Example 21, 2-chloromethyl-4-bromosaccharin] yielded a Ki of 0.5 nM and a kon [1] of 950000 M⁻¹ s⁻¹.

`O=C1c2ccccc2S(=O)(=O)N1CSc1nnnn1CCN1CCOCC1` [Example 30BG] was tested, and the Ki was 50 nM and the kon [1] was 1700 M⁻¹ s⁻¹.

In the case of `O=C(O)c1ccc(-n2nnnc2SCN2C(=O)c3ccccc3S2(=O)=O)cc1` [Example 30D], the Ki is reported as 85 nM and the kon [1] is reported as 800 M⁻¹ s⁻¹.

Compound `COC(=O)c1cccc2c1C(=O)N(CCl)S2(=O)=O` [Example 22G] has a Ki of 50 nM and a kon [1] of 3000 M⁻¹ s⁻¹.

In the case of `Cc1nnc(SCN2C(=O)c3c(C(C)C)cccc3S2(=O)=O)s1` [Example 30AM], the Ki is reported as 4.5 nM and the kon [1] is reported as 12300 M⁻¹ s⁻¹.

`O=C1c2ccccc2C(=O)N1CN1C(=O)c2ccccc2S1(=O)=O` [Example 30BF] was tested, and the Ki was 40000 nM and the kon [1] was 20 M⁻¹ s⁻¹.

`CCC(C)c1cccc2c1C(=O)N(CCl)S2(=O)=O` (stereo not drawn) [Example 22B, 2-chloromethyl-4-sec.-butylsaccharin] showed a Ki of 90 nM and a kon [1] of 2400 M⁻¹ s⁻¹.

`COC(=O)c1cc(C(=O)OC)cc(-n2nnnc2SCN2C(=O)c3ccccc3S2(=O)=O)c1` [Example 30E] gave a Ki of 12.7 nM and a kon [1] of 7300 M⁻¹ s⁻¹.

`O=C1c2ccccc2S(=O)(=O)N1/C=C/CSc1nnnn1-c1ccccc1` [Example 38, trans-2-[3-(1-phenyl-1H-tetrazol-5-ylthio)-1-propenyl]saccharin] showed a Ki of 2 nM and a kon [1] of 43000 M⁻¹ s⁻¹.

Compound `CC(C)c1cccc2c1C(=O)N(Cn1nnn(-c3ccccc3)c1=S)S2(=O)=O` [Example 30AJ] has a Ki of 15.5 nM and a kon [1] of 1800 M⁻¹ s⁻¹.

For `COCCOCCOc1ccc(OC)c2c1S(=O)(=O)N(CSc1nnnn1-c1ccccc1)C2=O` [Example 30M], the Ki was 10 nM and the kon [1] was 1000 M⁻¹ s⁻¹.

In the case of `CC(C)c1cccc2c1C(=O)N(CSc1nnnn1CC(=O)N(C)C)S2(=O)=O` [Example 30AW], the Ki is reported as 1 nM and the kon [1] is reported as 30000 M⁻¹ s⁻¹.

`O=C1c2c(Cl)cccc2S(=O)(=O)N1CSc1nnnn1-c1ccccc1` [Example 4, 4-chloro-2-(1-phenyl-1H-tetrazol-5-ylthiomethyl)saccharin] gave a Ki of 12 nM and a kon [1] of 20000 M⁻¹ s⁻¹.

For `CCc1cccc2c1C(=O)N(CSc1nnnn1CC(=O)N(C)C)S2(=O)=O` [Example 30AV], the Ki was 15 nM and the kon [1] was 7600 M⁻¹ s⁻¹.

With `O=C1c2ccccc2S(=O)(=O)N1CS(=O)(=O)c1c(Cl)cccc1Cl` [Example 32A, 2-(2,6-dichlorophenylsulfonylmethyl)saccharin] the Ki was 145 nM and the kon [1] was 600 M⁻¹ s⁻¹.

In the case of `COC(=O)c1cn(-c2ccccc2)c(SCN2C(=O)c3ccccc3S2(=O)=O)n1` [Example 30AR], the Ki is reported as 153 nM and the kon [1] is reported as 300 M⁻¹ s⁻¹.

`O=C(O)c1cccc(-n2nnn(CN3C(=O)c4ccccc4S3(=O)=O)c2=S)c1` [Example 30-O] showed a Ki of 2000 nM and a kon [1] of 30 M⁻¹ s⁻¹.

In the case of `O=C1c2ccccc2S(=O)(=O)N1CSc1nnc(S)s1` [Example 30AH], the Ki is reported as 60 nM and the kon [1] is reported as 1100 M⁻¹ s⁻¹.

`O=C1c2cccc(Cl)c2S(=O)(=O)N1CCl` [Example 22D] showed a Ki of 1.3 nM and a kon [1] of 75800 M⁻¹ s⁻¹.
